The text below walks through data of patent US10899790B2, “Method for modifying T cell population” (OSAKA UNIVERSITY, priority 2016, dated 2021).

The structures appear in SMILES notation.

For the first test, the target named is T1, Retinol Dehydrogenase 10 (RDH10) (Homo sapiens, UniProt Q8IZV5).
T1 construct: expressed in transfected cells; host or cells: 293T (microsomal fraction)
T1 sequence (Q8IZV5 1-341): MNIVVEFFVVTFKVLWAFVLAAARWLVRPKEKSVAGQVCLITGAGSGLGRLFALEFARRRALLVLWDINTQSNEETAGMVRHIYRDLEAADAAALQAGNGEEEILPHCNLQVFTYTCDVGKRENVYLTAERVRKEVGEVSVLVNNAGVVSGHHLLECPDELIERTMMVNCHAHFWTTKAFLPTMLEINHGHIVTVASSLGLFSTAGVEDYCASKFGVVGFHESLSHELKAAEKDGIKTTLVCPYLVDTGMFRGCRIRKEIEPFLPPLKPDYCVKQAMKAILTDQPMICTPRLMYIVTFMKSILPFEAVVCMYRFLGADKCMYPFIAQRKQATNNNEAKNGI
As to the kind of experiment: Inhibition of RDH10 enzyme activity (microsomal fraction of RDH10-expressed 293T, all-trans retinol to all-trans retinal, HPLC). The class given is biochemical. The conditions noted are these: final concentration of 20 μM; relative to DMSO control (FIG. 1). As to the method: All-trans retinol, BSA, and NAD (nicotinamide adenine dinucleotide) as a coenzyme were added to a buffer for reaction (90 mM potassium phosphate buffer, pH7.4, 40 mM KCl) so as to have final concentrations of 10 μM, 10 μM, and 1 mM respectively. This mixture was taken in siliconized tubes by 200 μl for each, the microsomal fractions separated from 293T and RDH10-expressed 293T were added to separate tubes by 10 μl for each, and the mixtures were allowed to react at 37° C. for 15 minutes. After 200 μl of methanol was added to the reaction mixtures to stop the reaction, retinoid was extracted using hexane and concentrated. The concentrated retinoid was dissolved in 150 μl of acetonitrile, separated by HPLC, and subjected to the detection of ultraviolet light absorption at a wavelength of 350 nm, whereby the substrate (all-trans retinol) and the product (all-trans retinal) were detected. In addition, standard samples (all-trans retinol and all-trans retinal) were separated by HPLC and the retention times of the respective standard samples were determined in advance. The solvent for HPLC was acetonitrile: 50 mM ammonium acetate=75:25. As the separation column, Syhergi 4 μm Hydro-RP 80A (manufactured by Phenomenex) was used. In addition, the flow rate was 2.0 ml/min. The RDH10 enzyme activity was calculated by reading the amount of product per fixed time from the chart of HPLC.
All-trans retinol, BSA, and NAD (nicotinamide adenine dinucleotide) as a coenzyme were added to a buffer for reaction (90 mM potassium phosphate buffer, pH7.4, 40 mM KCl) so as to have final concentrations of 10 μM, 10 μM, and 1 mM respectively. This mixture was taken in siliconized tubes by 200 μl for each, the microsomal fraction separated from RDH10-expressed 293T was added to separate tubes by 10 μl for each. The RDH10 inhibitor dissolved in DMSO was added to each tube so as to have a final concentration of 20 μM, and the same amount of DMSO was added to the control tube. The mixture was allowed to react at 37° C. for 15 to 30 minutes, 200 μl of methanol was added to the reaction mixtures, and then retinoid was extracted using hexane and concentrated. The concentrated retinoid was dissolved in 150 μl of acetonitrile, separated by HPLC, and subjected to the detection of ultraviolet light absorption at a wavelength of 350 nm, whereby the substrate (all-trans retinol) and the product (all-trans retinal) were detected. In addition, standard samples (all-trans retinol and all-trans retinal) were separated by HPLC and the retention times of the respective standard samples were determined in advance. The solvent for HPLC was acetonitrile: 50 mM ammonium acetate=75:25. As the separation column, Syhergi 4 μm Hydro-RP 80A (manufactured by Phenomenex) was used. The flow rate was 2.0 ml/min.
The enzyme activity was determined by the waveform area of the product (all-trans retinal) with respective to the waveform area of the non-reacted substrate (all-trans retinol), and the relative value with respect to the enzyme activity in the control is illustrated in FIG. 1. The error bars indicate SD (standard deviation).
As for `COC(=O)[C@@]1(C)CC[C@]2(C)CC[C@]3(C)C(=CC(=O)[C@@H]4[C@@]5(C)CCC(NC(=O)N[C@@H](Cc6ccccc6)C(=O)O)C(C)(C)[C@@H]5CC[C@]43C)[C@H]2C1` (stereo partly drawn) [Compound No. 14, (2S)-2-(3-((4aR,6aR,6bS,8aS,11S,12aS,14aR,14bS)-11-(methoxycarbonyl)-4,4,6a,6b,8a,11,14b-heptamethyl-14-oxo-1,2,3,4,4a,5,6,6a,6b,7,8,8a,9,10,11,12,12a,14,14a,14b-icosahydropicen-3-yl)ureido)-3-phenyl propanoic acid], the “RDH10 enzyme activity inhibitory action” value is on record as “relatively potent”. The same measure, in the same setting: under `CCOC(=O)CNC(=O)NC1CC[C@]2(C)[C@H]3C(=O)C=C4[C@H]5C[C@@](C)(C(=O)OC)CC[C@]5(C)CC[C@@]4(C)[C@]3(C)CC[C@H]2C1(C)C` (stereo partly drawn) [Compound No. 10, (2S,4aS,6aS,6bR,8aR,12aS,12bR,14bS)-methyl 10-(3-(2-ethoxy-2-oxoethyl)ureido)-2,4a,6a,6b,9,9,12a-heptamethyl-13-oxo-1,2,3,4,4a,5,6,6a,6b,7,8,8a,9,10,11,12,12a,12b,13,14b-icosahydropicene-2-carboxylate] stands “relatively potent”.

The next test has as its system Healthy human-derived CD4+CD45RO+T cells. Kind of test: Effect in vitro: CD62L and CD127 expression in cultured T cells by flow cytometry. It counts as cell-based. The conditions noted are these: 20 μM; anti-CD3, anti-CD28, IL-2; vs DMSO control (FIG. 2). The protocol: Healthy human-derived CD4^+CD45RO^+T cells (1×10^5) were cultured in the presence of anti-CD3 antibody (2 μg/ml), anti-CD28 antibody (2 μg/ml), IL-2 (20 IU/ml) and RDH10 inhibitors (Compound No. 16 (RDHI-032), Compound No. 17 (RDHI-033), and Compound No. 18 (RDHI-034)) (20 μM for each). In addition, DMSO was used as a control for the RDH10 inhibitor. After seven days […] resuspended in a fresh culture medium to which IL-2 was not added, and cultured for one more day. Thereafter, the expression of CD62L and CD127 in T cells was analyzed by flow cytometry. The culture solution used was X-VIVO15 to which AB serum was added to have a final concentration of 10%.
On the technique in general: Flow cytometry measures light scatter and fluorescence of single cells or particles in a stream.
With `COC(=O)[C@@]1(C)CC[C@]2(C)CC[C@]3(C)C(=CC(=O)[C@@H]4[C@@]5(C)CCC(NC(=O)Nc6ccccc6C(=O)O)C(C)(C)[C@@H]5CC[C@]43C)[C@H]2C1` (stereo partly drawn) [Compound No. 12, 2-(3-((4aR,6aR,6bS,8aS,11S,12aS,14aR,14bS)-11-(methoxycarbonyl)-4,4,6a,6b,8a,11,14b-heptamethyl-14-oxo-1,2,3,4,4a,5,6,6a,6b,7,8,8a,9,10,11,12,12a,14,14a,14b-icosahydropicen-3-yl)ureido)benzoic acid], the “amplification of memory T cells (CD62L+CD127+T cells)” value (shortened to “amplification of memory T cells”) was “tended to amplify memory cells”.

Turning to `COC(=O)[C@@]1(C)CC[C@]2(C)CC[C@]3(C)C(=CC(=O)[C@@H]4[C@@]5(C)CCC(NC(=O)/C=C\C(=O)O)C(C)(C)[C@@H]5CC[C@]43C)[C@@H]2C1` (stereo partly drawn) [Compound No. 6, (Z)-4-((4aR,6aR,6bS,8aS,11S,12aR,14aR,14bS)-11-(methoxycarbonyl)-4,4,6a,6b,8a,11,14b-heptamethyl-14-oxo-1,2,3,4,4a,5,6,6a,6b,7,8,8a,9,10,11,12,12a,14,14a,14b-icosahydropicen-3-ylamino)-4-oxobut-2-enoic acid], the “amplification of memory T cells” value is on record as “tended to amplify memory cells”.

As to `CC1(C)C(N)CC[C@]2(C)[C@H]3C(=O)C=C4[C@H]5C[C@@](C)(C(N)=O)CC[C@]5(C)CC[C@@]4(C)[C@]3(C)CC[C@@H]12` (stereo partly drawn) [Compound No. 19, (2S,4aS,6aS,6bR,8aR,12aS,12bR,14bS)-10-amino-2,4a,6a,6b,9,9,12a-heptamethyl-13-oxo-1,2,3,4,4a,5,6,6a,6b,7,8,8a,9,10,11,12,12a,12b,13,14b-icosahydropicene-2-carboxamide], the “amplification of memory T cells” value was “tended to amplify memory cells”. For `CC1(C)C(N)CC[C@]2(C)[C@H]3C(=O)C=C4[C@@H]5C[C@@](C)(C(=O)O)CC[C@]5(C)CC[C@@]4(C)[C@]3(C)CC[C@@H]12.Cl` (stereo partly drawn) [Compound No. 21, (2S,4aS,6aS,6bR,8aR,12aS,12bR,14bR)-10-amino-2,4a,6a,6b,9,9,12a-heptamethyl-13-oxo-1,2,3,4,4a,5,6,6a,6b,7,8,8a,9,10,11,12,12a,12b,13,14b-icosahydropicene-2-carboxylic acid hydrochloride], the “amplification of memory T cells” value is “tended to amplify memory cells”. Regarding `CC1(C)C(=NO)CC[C@]2(C)[C@H]3C(=O)C=C4[C@H]5C[C@@](C)(C(N)=O)CC[C@]5(C)CC[C@@]4(C)[C@]3(C)CC[C@@H]12` [RDHI-038, (2S,4aS,6aS,6bR,8aR,12aS,12bR,14bS)-10-(hydroxyimino)-2,4a,6a,6b,9,9,12a-heptamethyl-13-oxo-1,2,3,4,4a,5,6,6a,6b,7,8,8a,9,10,11,12,12a,12b,13,14b-icosahydropicene-2-carboxamide], the “amplification of memory T cells” value is given as “tended to amplify memory cells”.

Consider `CC1(C)C(N)CC[C@]2(C)[C@H]3C(=O)C=C4[C@H]5C[C@@](C)(C(=O)O)CC[C@]5(C)CC[C@@]4(C)[C@]3(C)CC[C@@H]12.Cl` (stereo partly drawn) [Compound No. 20, (2S,4aS,6aS,6bR,8aR,12aS,12bR,14bS)-10-amino-2,4a,6a,6b,9,9,12a-heptamethyl-13-oxo-1,2,3,4,4a,5,6,6a,6b,7,8,8a,9,10,11,12,12a,12b,13,14b-icosahydropicene-2-carboxylic acid hydrochloride], for which the “amplification of memory T cells” value was “tended to amplify memory cells”. Still for that read-out and setting: in the case of `COC(=O)[C@H](Cc1ccccc1)NC(=O)NC1CC[C@]2(C)[C@H]3C(=O)C=C4[C@H]5C[C@@](C)(C(=O)OC)CC[C@]5(C)CC[C@@]4(C)[C@]3(C)CC[C@H]2C1(C)C` (stereo partly drawn) [Compound No. 11, (2S,4aS,6aS,6bR,8aR,12aS,12bR,14bS)-methyl 10-(3-((S)-1-methoxy-1-oxo-3-phenylpropan-2-yl)ureido)-2,4a,6a,6b,9,9,12a-heptamethyl-13-oxo-1,2,3,4,4a,5,6,6a,6b,7,8,8a,9,10,11,12,12a,12b,13,14b-icosahydropicene-2-carboxylate] it was “tended to amplify memory cells”; in that of `COC(=O)[C@@]1(C)CC[C@]2(C)CC[C@]3(C)C(=CC(=O)[C@@H]4[C@@]5(C)CCC(NC(=O)c6ccccc6C(=O)O)C(C)(C)[C@@H]5CC[C@]43C)[C@H]2C1` (stereo partly drawn) [Compound No. 3, 2-((4aR,6aR,6bS,8aS,11S,12aS,14aR,14bS)-11-(methoxycarbonyl)-4,4,6a,6b,8a,11,14b-heptamethyl-14-oxo-1,2,3,4,4a,5,6,6a,6b,7,8,8a,9,10,11,12,12a,14,14a,14b-icosahydropicen-3-ylcarbamoyl)benzoic acid], “tended to amplify memory cells”; in that of `CC1(C)C(NC(=O)c2ccccc2C(=O)O)CC[C@]2(C)[C@H]3C(=O)C=C4[C@@H]5C[C@@](C)(C(=O)O)CC[C@]5(C)CC[C@@]4(C)[C@]3(C)CC[C@@H]12` (stereo partly drawn) [Compound No. 27, (2S,4aS,6aS,6bR,8aR,12aS,12bR,14bR)-10-(2-carboxybenzamide)-2,4a,6a,6b,9,9,12a-heptamethyl-13-oxo-1,2,3,4,4a,5,6,6a,6b,7,8,8a,9,10,11,12,12a,12b,13,14b-icosahydropicene-2-carboxylic acid], “tended to amplify memory cells”.
